Assay results: ChEMBL document CHEMBL5729440, “Compounds and methods for treating oxalate-related diseases” (2022)

Biological target: T1, 2-Hydroxyacid oxidase 1 (Homo sapiens, UniProt Q9UJM8)
T1 sequence (Q9UJM8 whole entry): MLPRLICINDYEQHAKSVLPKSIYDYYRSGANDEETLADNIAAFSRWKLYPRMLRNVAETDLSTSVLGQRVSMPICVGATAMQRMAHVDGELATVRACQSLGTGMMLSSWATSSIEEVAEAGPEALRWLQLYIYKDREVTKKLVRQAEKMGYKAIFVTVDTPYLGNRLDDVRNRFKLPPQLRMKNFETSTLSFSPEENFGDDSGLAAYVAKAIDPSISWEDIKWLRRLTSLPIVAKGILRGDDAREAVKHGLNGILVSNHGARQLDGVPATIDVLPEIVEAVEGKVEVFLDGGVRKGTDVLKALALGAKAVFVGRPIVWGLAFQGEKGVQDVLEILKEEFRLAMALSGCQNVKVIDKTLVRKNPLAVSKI
Experiment: In-Vitro Human Glycolate Oxidase (hGOX) Assay: The in-vitro glycolate oxidase assay was performed using recombinant full-length human hydroxyacid oxidase 1 (HAO1), the equivalents of hGOX. The enzyme was obtained from AbCam (Catalog #ab113144) and was purified using conventional chromatography to >95% purity. Purified HAO1 was dissolved in assay buffer consisting of 10 mM NaCl, 110 mM KCl, 2 mM MgCl2, 50 mM HEPES (pH 7.4), and 0.01% Triton™ X-100. The assay used Corning 3575 384-well flat bottom, low flange, non-binding surface, black polystyrene plates.Test compounds in DMSO were preincubated at different concentrations with purified recombinant human GO (6 nM) for 10 min, followed by the addition of glycolate substrate (85 μM) to start the reaction. The plates were incubated for 10 min at room temperature, at which point Amplex red reagent (50 μM) was added.The fluorescence intensity signal was measured on a VariosKan LUX instrument using an excitation of 560 nm and an emission of 590 nm. The IC50 values were calculated using Graphpad Prism.

An IC50 of 4.7 µM was found for `CC(C)CC#Cc1cccc(S(=O)(=O)c2[nH]nnc2C(=O)O)c1` in this work.
